# Measurements published in patent US20230089247A1, “NOVEL COMPOUNDS SUITABLE FOR THE TREATMENT OF DYSLIPIDEMIA” (ZYDUS LIFESCIENCES LIMITED, priority 2019, published 2023).
# Assays:
# PCSK9 = PCSK9 (Homo sapiens, UniProt Q8NBP7); experiment: BODIPY-LDL uptake assay in HepG2 cells; type: cell-based; details: 5 μg/ml PCSK9, BODIPY-LDL
# How it was run: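 Compounds pre-incubated 60 min with 5 μg/ml PCSK9 (0.2% DMSO), then added to HepG2 cells for 16 h; 1 μg/ml BODIPY-LDL added in serum-free medium for 5 h. Fluorescence (Ex 485/Em 520 nm) normalized to protein; PCSK9-only wells = 0%, no-PCSK9 wells = 100% uptake, giving percent increase in LDL uptake.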
# High Fat Diet C57 Mice = experiment: LDL-C lowering activity in high fat diet C57 mice; type: in vivo; details: Mus musculus, po, 168 h; C57 mice on high fat diet; 30 mg/Kg orally once a day, 7 days treatment, blood on day 7; read-out: % Change Vs Vehicle Control in LDLc
# Method: LDL-C Lowering Activity—in High Fat Diet C57 Mice
# The in-vivo LDL-c lowering for test compound was tested in C57 mice which were kept on high fat diet for 4 weeks and the blood was collected by retro-orbital sinus puncture method under light ether anesthesia on day 0 (pretreatment). Animal are grouped based on LDL-c levels, after that 7 days treatment with vehicle or test compound orally at a dose of 30 mpk dose once a day was given. On completion of treatment on day 7 of the treatment the blood was collected for LDL-c and TC levels measurement.
# PCSK9, sequence (Q8NBP7 153-692): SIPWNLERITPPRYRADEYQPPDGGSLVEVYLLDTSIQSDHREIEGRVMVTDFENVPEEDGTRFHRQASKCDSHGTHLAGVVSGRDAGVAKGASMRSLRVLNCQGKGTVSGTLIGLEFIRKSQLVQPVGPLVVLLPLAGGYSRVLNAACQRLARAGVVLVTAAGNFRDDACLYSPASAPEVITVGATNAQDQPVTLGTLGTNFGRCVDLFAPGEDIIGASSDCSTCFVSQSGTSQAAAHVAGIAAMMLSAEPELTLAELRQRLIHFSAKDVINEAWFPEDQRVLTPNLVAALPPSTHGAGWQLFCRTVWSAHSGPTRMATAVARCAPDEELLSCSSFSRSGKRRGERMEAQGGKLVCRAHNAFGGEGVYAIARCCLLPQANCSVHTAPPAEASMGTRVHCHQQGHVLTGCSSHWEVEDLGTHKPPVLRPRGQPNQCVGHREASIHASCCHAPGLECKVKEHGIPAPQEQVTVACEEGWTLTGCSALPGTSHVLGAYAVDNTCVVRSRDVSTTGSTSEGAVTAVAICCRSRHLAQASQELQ
Structure (SMILES),% increase in LDL Uptake (PCSK9; 1 μM test compound) [%],% increase in LDL Uptake (PCSK9; 10 μM test compound) [%],% increase in LDL Uptake (PCSK9; 30 μM test compound) [%],change in vivo at 30 mg/kg (High Fat Diet C57 Mice) [%]
"COC1(c2ccc(C(=O)N3CCC(c4ccc(C(F)(F)F)cc4)CC3)cc2)CCNCC1 [Example 144, (4-(4-methoxypiperidin-4-yl)phenyl)(4-(4-(trifluoromethyl)phenyl)piperidin-1-yl)methanone]",1,16,77,-66 ± 10
"COC1(c2ccc(C(=O)N3CC4CN(c5ccc(C(F)(F)F)cc5)CC4C3)cc2)COC1 (stereo not drawn) [Example 57, (4-(3-methoxyoxetan-3-yl)phenyl)(5-(4-(trifluoromethyl)phenyl)hexahydropyrrolo[3,4-c]pyrrol-2(1H)-yl)methanone]",6,32,53,-43 ± 9
"COC1(c2cccc(C(=O)N3CC4CN(c5ccc(C(F)(F)F)cc5)CC4C3)c2)COC1 (stereo not drawn) [Example 56, (3-(3-methoxyoxetan-3-yl)phenyl)(5-(4-(trifluoromethyl)phenyl)hexahydropyrrolo[3,4-c]pyrrol-2(1H)-yl)methanone]",55,344,257,-5 ± 8
"O=C(c1ccc(C2(O)COC2)cc1)N1CCCN(c2ccc(C(F)(F)F)cc2)CC1 [Example 184, (4-(3-hydroxyoxetan-3-yl)phenyl)(4-(4-(trifluoromethyl)phenyl)-1,4-diazepan-1-yl)methanone]",19,117,250,-7 ± 7
"O=C(c1cccc(C2(O)COC2)c1)N1CCC(c2ccc(C(F)(F)F)cc2)CC1 [Example 47, (3-(3-hydroxyoxetan-3-yl)phenyl)(4-(4-(trifluoromethyl)phenyl)piperidin-1-yl)methanone]",17,189,383,-5 ± 7
"O=C(c1ccc(C2(O)COC2)cc1)N1CCC(c2ccc(C(F)(F)F)cc2)CC1 [Example 1, (4-(3-hydroxyoxetan-3-yl)phenyl)(4-(4-(trifluoromethyl)phenyl)piperidin-1-yl)methanone]",25,135,130,-52 ± 4
"O=C(c1ccc(C2(O)COC2)cc1)N1CC2=C(C1)CN(c1ccc(C(F)(F)F)cc1)C2 [Example 95, (4-(3-hydroxyoxetan-3-yl)phenyl)(5-(4-(trifluoromethyl)phenyl)-3,4,5,6-tetrahydropyrrolo[3,4-c]pyrrol-2(1H)-yl)methanone]",19,127,226,-16 ± 9
"O=C(c1ccc(C2(O)COC2)cc1)N1CC=C(c2ccc(C(F)(F)F)cc2)CC1 [Example 87, (4-(3-hydroxyoxetan-3-yl)phenyl)(4-(4-(trifluoromethyl)phenyl)-5,6-dihydropyridin-1(2H)-yl)methanone]",77,115,94,-36 ± 5
"CCOC1(c2ccc(C(=O)N3CC4CN(c5ccc(C(F)(F)F)cc5)CC4C3)cc2)COC1 (stereo not drawn) [Example 58, (4-(3-ethoxyoxetan-3-yl)phenyl)(5-(4-(trifluoromethyl)phenyl)hexahydropyrrolo[3,4-c]pyrrol-2 (1H)-yl)methanone]",25,21,43,-44 ± 3
"O=C(Nc1ccc(C2(O)COC2)cc1)C1CCN(c2ccc(C(F)(F)F)cc2)CC1 [Example 3, N-(4-(3-hydroxyoxetan-3-yl)phenyl)-1-(4-(trifluoromethyl)phenyl) piperidine-4-carboxamide]",−2,39,34,
"O=C(c1ccc(C2(O)CSC2)cc1)N1CC2CN(c3ccc(C(F)(F)F)cc3)CC2C1 (stereo not drawn) [Example 146, (4-(3-hydroxythietan-3-yl)phenyl)(5-(4-(trifluoromethyl)phenyl)hexahydropyrrolo[3,4-c]pyrrol-2(1H)-yl)methanone]",53,212,29,
"O=S(=O)(c1ccc(C2(O)COC2)cc1)N1CCN(c2ccc(C(F)(F)F)cc2)CC1 [Example 7, 3-(4-((4-(4-(trifluoromethyl)phenyl)piperazin-1-yl)sulfonyl)phenyl) oxetan-3-ol]",28,63,128,
"COC1(c2ccc(C(=O)N3CCC(c4ccc(C(F)F)cc4)CC3)cc2)COC1 [Example 68, (4-(4-(difluoromethyl)phenyl)piperidin-1-yl)(4-(3-methoxyoxetan-3-yl)phenyl)methanone]",0,2,51,
"O=C(c1cccc(C2(O)COC2)c1)N1CC2CN(c3ccc(C(F)(F)F)cn3)CC2C1 (stereo not drawn) [Example 210, (3-(3-hydroxyoxetan-3-yl)phenyl)(5-(5-(trifluoromethyl)pyridin-2-yl)hexahydropyrrolo[3,4-c]pyrrol-2(1H)-yl)methanone]",0,107,0,
"O=C(c1ccc(C2(O)COC2)cc1)N1CCC(c2ccc(O)cc2)CC1 [Example 63, (4-(3-hydroxyoxetan-3-yl)phenyl)(4-(4-hydroxyphenyl)piperidin-1-yl)methanone]",12,18,0,
"O=C(c1ccc(C2(OCC3CC3)COC2)cc1)N1CCC(c2ccc(C(F)(F)F)cc2)CC1 [Example 46, (4-(3-(cyclopropylmethoxy)oxetan-3-yl)phenyl)(4-(4-(trifluoromethyl)phenyl)piperidin-1-yl)methanone]",28,47,34,
"O=S(=O)(c1ccc(C2(O)COC2)cc1)N1CC2CN(c3ccc(C(F)(F)F)cc3)CC2C1 (stereo not drawn) [Example 98, 3-(4-((5-(4-(trifluoromethyl)phenyl)hexahydropyrrolo[3,4-c]pyrrol-2(1H)-yl)sulfonyl)phenyl)oxetan-3-ol]",0,124,3,
